Test results taken from PubChem BioAssay AID330 (DTP/NCI, 2004).
Where “and” joins values, the source holds several entries; their conditions need not be identical. Identical values can stand only once. Toxic doses and inconclusive results are not listed. Rule for the calls: active = survival T/C of 150% or more; inactive = T/C below 125% in these data.

Test system: P388 leukemia ip, CD2F1 mice, survival T/C
Assay: NCI In Vivo Anticancer Drug Screen. Data for tumor model P388 Leukemia (intraperitoneal) in CD2F1 (CDF1) mice
Details: endpoint: median survival time, higher = longer survival
Summary of the method: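 Mice carrying the transplanted tumor received test compound or vehicle. Survival was recorded in each group, and the value is the treated-group measurement divided by that of the vehicle-treated control group.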

[1] = dose: 60.0 mg/kg/injection, schedule: Q01DX005 (ip), vehicle: saline with Tween-80
[2] = dose: 120.0 mg/kg/injection, schedule: Q01DX005 (ip), vehicle: saline with Tween-80
[3] = dose: 240.0 mg/kg/injection, schedule: Q01DX005 (ip), vehicle: saline with Tween-80
[4] = dose: 100.0 mg/kg/injection, schedule: Q04DX002 (ip), vehicle: Klucel (hydroxypropylcellulose) (HPC)
[5] = dose: 200.0 mg/kg/injection, schedule: Q04DX002 (ip), vehicle: Klucel (hydroxypropylcellulose) (HPC)
[6] = dose: 400.0 mg/kg/injection, schedule: Q04DX002 (ip), vehicle: Klucel (hydroxypropylcellulose) (HPC)
[7] = dose: 50.0 mg/kg/injection, schedule: Q01DX009 (ip), vehicle: saline with Tween-80
[8] = dose: 100.0 mg/kg/injection, schedule: Q01DX009 (ip), vehicle: saline with Tween-80
[9] = dose: 200.0 mg/kg/injection, schedule: Q01DX009 (ip), vehicle: saline with Tween-80
[10] = dose: 200.0 mg/kg/injection, schedule: Q04DX002 (ip), vehicle: saline with Tween-80
[11] = dose: 400.0 mg/kg/injection, schedule: Q04DX002 (ip), vehicle: saline with Tween-80
[12] = dose: 50.0 mg/kg/injection, schedule: Q01DX005 (ip), vehicle: saline with Tween-80
[13] = dose: 100.0 mg/kg/injection, schedule: Q01DX005 (ip), vehicle: saline with Tween-80
[14] = dose: 200.0 mg/kg/injection, schedule: Q01DX005 (ip), vehicle: saline with Tween-80
[15] = dose: 100.0 mg/kg/injection, schedule: Q01DX009 (ip), vehicle: saline
[16] = dose: 50.0 mg/kg/injection, schedule: Q01DX009 (ip), vehicle: Klucel (hydroxypropylcellulose) (HPC)
[17] = dose: 100.0 mg/kg/injection, schedule: Q01DX009 (ip), vehicle: Klucel (hydroxypropylcellulose) (HPC)
[18] = dose: 60.0 mg/kg/injection, schedule: Q01DX005 (ip), vehicle: Klucel (hydroxypropylcellulose) (HPC)
[19] = dose: 120.0 mg/kg/injection, schedule: Q01DX005 (ip), vehicle: Klucel (hydroxypropylcellulose) (HPC)

Measured: T/C

c1ccc(COCC(COCc2ccccc2)(COCc2ccccc2)COCc2ccccc2)cc1
inactive: dose: 12.5 mg/kg/injection, schedule: Q01DX009 (ip), vehicle: saline + alcohol 105 % of control | dose: 25.0 mg/kg/injection, schedule: Q01DX009 (ip), vehicle: saline + alcohol 104 % of control | dose: 50.0 mg/kg/injection, schedule: Q01DX009 (ip), vehicle: saline + alcohol 97 % of control

COc1cc(C2NC(C(=O)O)CS2)cc(OC)c1OC (stereo not given)
inactive: dose: 50.0 mg/kg/injection, schedule: Q01DX009 (ip), vehicle: suspension in saline 94 % of control | dose: 100.0 mg/kg/injection, schedule: Q01DX009 (ip), vehicle: suspension in saline 97 % of control | dose: 200.0 mg/kg/injection, schedule: Q01DX009 (ip), vehicle: suspension in saline 96 % of control

CCOC(=O)CCC1(C)Sc2ccccc2N1C (stereo not given)
inactive: [1] 107 % of control | [2] 110 % of control | [3] 107 % of control

O=C(N/N=C/c1ccccc1[OH2+])c1ccncc1.O=C(N/N=C/c1ccccc1[OH2+])c1ccncc1.[Cl-].[Mn+2]
inactive: [4] 112 % of control | [5] 107 % of control | [6] 94 % of control

O=C1C2CC=CCC2C(=O)N1SC(Cl)(Cl)Cl (stereo not given)
inactive: dose: 3.13 mg/kg/injection, schedule: Q01DX009 (ip), vehicle: saline with Tween-80 121 % of control | dose: 6.25 mg/kg/injection, schedule: Q01DX009 (ip), vehicle: saline with Tween-80 121 % of control | dose: 12.5 mg/kg/injection, schedule: Q01DX009 (ip), vehicle: saline with Tween-80 120 % of control

NC(=O)c1cccnc1
inactive: [7] 106 % of control | [8] 110 % of control | [9] 97 % of control | dose: 250.0 mg/kg/injection, schedule: Q01DX009 (sc), vehicle: saline 102 % of control | dose: 500.0 mg/kg/injection, schedule: Q01DX009 (sc), vehicle: saline 105 % of control

Nc1cccc(NC=O)c1
inactive: dose: 12.5 mg/kg/injection, schedule: Q04DX003 (ip), vehicle: saline with Tween-80 100 % of control | dose: 25.0 mg/kg/injection, schedule: Q04DX003 (ip), vehicle: saline with Tween-80 110 % of control | dose: 50.0 mg/kg/injection, schedule: Q04DX003 (ip), vehicle: saline with Tween-80 100 % of control

Brc1ccc(N=C2N=C(Nc3ccc(Br)cn3)c3ccccc32)nc1
inactive: dose: 12.5 mg/kg/injection, schedule: Q04DX002 (ip), vehicle: saline with Tween-80 100 % of control | dose: 25.0 mg/kg/injection, schedule: Q04DX002 (ip), vehicle: saline with Tween-80 94 % of control | dose: 50.0 mg/kg/injection, schedule: Q04DX002 (ip), vehicle: saline with Tween-80 90 % of control | [10] 91 % of control | [11] 106 % of control

[N-]=[N+]=NCCN(Cc1ccccc1)Cc1ccccc1
inactive: [12] 104 % of control | [13] 104 % of control | [14] 114 % of control

COc1c(-c2ccccc2)cc(-c2ccccc2)c(-c2ccccc2)c1-c1ccccc1
inactive: dose: 100.0 mg/kg/injection, schedule: Q04DX002 (ip), vehicle: saline with Tween-80 93 % of control | [10] 86 % of control | [11] 89 % of control

c1ccc2c3c([nH]c2c1)CCN1CCN(CCc2ccncc2)CC31 (stereo not given)
inactive: [4] 100 % of control | [5] 101 % of control | [6] 96 % of control

O=C1NC(=O)C2(OC3c4ccccc4C=CN3C3=C2C(=O)CC3)C(=O)N1 (stereo not given)
inactive: [12] 97 % of control | [13] 91 % of control | [14] 91 % of control

N/C(=N\O)c1ccc2oc(/C=C/c3cc4cc(/C(N)=N\O)ccc4o3)cc2c1
inactive: dose: 50.0 mg/kg/injection, schedule: Q01DX009 (ip), vehicle: saline 100 % of control | [15] 97 % of control | dose: 200.0 mg/kg/injection, schedule: Q01DX009 (ip), vehicle: saline 91 % of control

COc1cc2c(cc1OC)C1CC(=O)C(Cc3ccccc3)CN1CC2 (stereo not given)
inactive: [16] 101 % of control | [17] 87 % of control and 95 % of control | dose: 200.0 mg/kg/injection, schedule: Q01DX009 (ip), vehicle: Klucel (hydroxypropylcellulose) (HPC) 95 % of control and 104 % of control

O=C(c1cc(Nc2ccnc3cc(Cl)ccc23)ccc1O)N1CCC(O)(c2ccccc2)CC1
inactive: [12] 102 % of control | [13] 108 % of control | [14] 109 % of control

C/C(=C\CC1C(=O)N(c2ccccc2)N(c2ccccc2)C1=O)CO
inactive: [18] 100 % of control | [19] 100 % of control | dose: 240.0 mg/kg/injection, schedule: Q01DX005 (ip), vehicle: Klucel (hydroxypropylcellulose) (HPC) 91 % of control

CCCCCCCCCCCCCCCCS(=O)(=O)N/N=C(/c1ccccc1Cl)N1CCOCC1
inactive: [7] 92 % of control | [8] 93 % of control | [9] 94 % of control

O=C(NN1C(=O)C2=Cc3ccccc3OC2=NC1c1ccccc1O)c1ccncc1 (stereo not given)
inactive: dose: 100.0 mg/kg/injection, schedule: Q01DX001 (ip), vehicle: saline 96 % of control | dose: 200.0 mg/kg/injection, schedule: Q01DX001 (ip), vehicle: saline 98 % of control | dose: 400.0 mg/kg/injection, schedule: Q01DX001 (ip), vehicle: saline 94 % of control

O=C1c2ccccc2C(=O)c2cc3c(cc21)OCO3
inactive: [18] 88 % of control | [19] 89 % of control

COC1=NC2(C)C(C)=C(c3ccccc3)C1(C)c1ccccc12 (stereo not given)
inactive: [1] 100 % of control | [2] 98 % of control | [3] 99 % of control

O=C1C(S(=O)(=O)O)=CC(=Nc2ccc(O)cc2)c2ccccc21
inactive: [12] 95 % of control | [13] 107 % of control | [14] 102 % of control

N=C(N)c1ccc(/C=C/c2cc3cc(C(=N)N)ccc3o2)cc1
active: dose: 100.0 mg/kg/injection, schedule: Q04DX003 (ip), vehicle: suspension in saline 178 % of control
inactive: dose: 12.5 mg/kg/injection, schedule: Q04DX003 (ip), vehicle: suspension in saline 112 % of control | dose: 25.0 mg/kg/injection, schedule: Q04DX003 (ip), vehicle: suspension in saline 118 % of control | dose: 50.0 mg/kg/injection, schedule: Q04DX003 (ip), vehicle: suspension in saline 120 % of control

O=C1C(c2ccccc2)=C(c2ccccc2)/C1=C\c1ccc(Cl)cc1Cl
inactive: [16] 87 % of control | [17] 87 % of control

COc1cc(-c2ccc(N=Nc3c(O)ccc4ccccc34)c(OC)c2)ccc1N=Nc1ccc2c(S(=O)(=O)O)cc(S(=O)(=O)O)c(N)c2c1O
inactive: dose: 66.0 mg/kg/injection, schedule: Q01DX009 (ip), vehicle: saline 102 % of control | [15] 118 % of control | dose: 150.0 mg/kg/injection, schedule: Q01DX009 (ip), vehicle: saline 114 % of control

Nc1nc2scnc2c(=O)[nH]1
inactive: dose: 12.5 mg/kg/injection, schedule: Q01DX005 (ip), vehicle: saline with Tween-80 88 % of control | dose: 25.0 mg/kg/injection, schedule: Q01DX005 (ip), vehicle: saline with Tween-80 101 % of control | [12] 109 % of control and 97 % of control | [13] 102 % of control | [14] 112 % of control

CCCCSP(Oc1ccccc1)SCCCC
inactive: dose: 25.0 mg/kg/injection, schedule: Q04DX003 (ip), vehicle: Klucel (hydroxypropylcellulose) (HPC) 100 % of control | dose: 50.0 mg/kg/injection, schedule: Q04DX003 (ip), vehicle: Klucel (hydroxypropylcellulose) (HPC) 108 % of control | dose: 100.0 mg/kg/injection, schedule: Q04DX003 (ip), vehicle: Klucel (hydroxypropylcellulose) (HPC) 109 % of control

COc1cc(NS(C)(=O)=O)ccc1Nc1c2ccccc2nc2cc(C(F)(F)F)c(N)cc12
active: dose: 13.0 mg/kg/injection, schedule: Q04DX003 (ip), vehicle: distilled water + Tween-80 162 % of control | dose: 21.6 mg/kg/injection, schedule: Q04DX003 (ip), vehicle: distilled water + Tween-80 180 % of control | dose: 25.0 mg/kg/injection, schedule: Q01DX009 (ip), vehicle: Klucel (hydroxypropylcellulose) (HPC) 172 % of control | dose: 36.0 mg/kg/injection, schedule: Q04DX003 (ip), vehicle: distilled water + Tween-80 190 % of control | [16] 152 % of control and 182 % of control | dose: 60.0 mg/kg/injection, schedule: Q04DX003 (ip), vehicle: distilled water + Tween-80 228 % of control
inactive: [17] 123 % of control
